Test results as given in patent publication US20250127170A1, “TRIAZINE HERBICIDAL COMPOUNDS” (SYNGENTA CROP PROTECTION AG, priority 2021, published 2025).

Tests used:
Format in all cases: in vivo
Conditions in all cases: 312 h, evaluated after 13 days, 100=total damage to plant, 0=no damage to plant
[1] = system: Euphorbia heterophylla (EPHHL); experiment: Pre-emergence biological efficacy
Description: (§1) Seeds of weeds and/or crops were sown in standard soil in pots (Amaranthus palmeri (AMAPA), Lolium perenne (LOLPE), Euphorbia heterophylla (EPHHL), Ipomoea hederacea (IPOHE), Setaria faberi (SETFA), Echinochloa crus-galli (ECHCG)). After cultivation for one day under controlled conditions in a glasshouse (at 24/19° C., day/night; 16 hours light), the plants were sprayed with an aqueous spray solution derived from the formulation of the technical active ingredient in a small amount of acetone and a special solvent and emulsifier mixture referred to as IF50 (11.12% Emulsogen EL360™+44.44% N-methylpyrrolidone+44.44% Dowanol DPM glycol ether), to create a 50 g/l solution which was then diluted using 0.2% Genapol XO80 as diluent to give the desired final dose of test compound.
(§2) The test plants were then grown under controlled conditions in the glasshouse (at 24/18° C., day/night; 15 hours light; 50% humidity) and watered twice daily. After 13 days the test was evaluated (100=total damage to plant; 0=no damage to plant).

[2] = system: Ipomoea hederacea (IPOHE); experiment: Pre-emergence biological efficacy
Description: as §1, §2

Setaria faberi (SETFA) [3] = experiment: Pre-emergence biological efficacy
Description: as §1, §2

Lolium perenne (LOLPE) [4] = experiment: Pre-emergence biological efficacy
Description: as §1, §2

[5] = system: Amaranthus palmeri (AMAPA); experiment: Pre-emergence biological efficacy
Description: as §1, §2

[6] = system: Echinochloa crus-galli (ECHCG); experiment: Pre-emergence biological efficacy
Description: as §1, §2

[7] = system: Euphorbia heterophylla (EPHHL); experiment: Post-emergence biological efficacy
Description: as §1, with “Chenopodium album (CHEAL),” for “Lolium perenne (LOLPE),”, “(IPOHE), Eleusine indica (ELEIN), Lolium perenne (LOLPE), Digitaria sanguinalis (DIGSA),” for “(IPOHE),”, “14 days” for “one day”, “compound. The test plants were then grown under controlled conditions in the glasshouse (at 24/18° C., day/night; 15 hours light; 50% humidity) and watered twice daily. After 13 days the test was evaluated (100=total damage to plant; 0=no damage to plant).” for “compound.”

[8] = system: Digitaria sanguinalis (DIGSA); experiment: Post-emergence biological efficacy
Description: as §1, with “Chenopodium album (CHEAL),” for “Lolium perenne (LOLPE),”, “(IPOHE), Eleusine indica (ELEIN), Lolium perenne (LOLPE), Digitaria sanguinalis (DIGSA),” for “(IPOHE),”, “14 days” for “one day”, “compound. The test plants were then grown under controlled conditions in the glasshouse (at 24/18° C., day/night; 15 hours light; 50% humidity) and watered twice daily. After 13 days the test was evaluated (100=total damage to plant; 0=no damage to plant).” for “compound.”

[9] = system: Ipomoea hederacea (IPOHE); experiment: Post-emergence biological efficacy
Description: as §1, with “Chenopodium album (CHEAL),” for “Lolium perenne (LOLPE),”, “(IPOHE), Eleusine indica (ELEIN), Lolium perenne (LOLPE), Digitaria sanguinalis (DIGSA),” for “(IPOHE),”, “14 days” for “one day”, “compound. The test plants were then grown under controlled conditions in the glasshouse (at 24/18° C., day/night; 15 hours light; 50% humidity) and watered twice daily. After 13 days the test was evaluated (100=total damage to plant; 0=no damage to plant).” for “compound.”

Setaria faberi (SETFA) [10] = experiment: Post-emergence biological efficacy
Description: as §1, with “Chenopodium album (CHEAL),” for “Lolium perenne (LOLPE),”, “(IPOHE), Eleusine indica (ELEIN), Lolium perenne (LOLPE), Digitaria sanguinalis (DIGSA),” for “(IPOHE),”, “14 days” for “one day”, “compound. The test plants were then grown under controlled conditions in the glasshouse (at 24/18° C., day/night; 15 hours light; 50% humidity) and watered twice daily. After 13 days the test was evaluated (100=total damage to plant; 0=no damage to plant).” for “compound.”

Lolium perenne (LOLPE) [11] = experiment: Post-emergence biological efficacy
Description: as §1, with “Chenopodium album (CHEAL),” for “Lolium perenne (LOLPE),”, “(IPOHE), Eleusine indica (ELEIN), Lolium perenne (LOLPE), Digitaria sanguinalis (DIGSA),” for “(IPOHE),”, “14 days” for “one day”, “compound. The test plants were then grown under controlled conditions in the glasshouse (at 24/18° C., day/night; 15 hours light; 50% humidity) and watered twice daily. After 13 days the test was evaluated (100=total damage to plant; 0=no damage to plant).” for “compound.”

[12] = system: Amaranthus palmeri (AMAPA); experiment: Post-emergence biological efficacy
Description: as §1, with “Chenopodium album (CHEAL),” for “Lolium perenne (LOLPE),”, “(IPOHE), Eleusine indica (ELEIN), Lolium perenne (LOLPE), Digitaria sanguinalis (DIGSA),” for “(IPOHE),”, “14 days” for “one day”, “compound. The test plants were then grown under controlled conditions in the glasshouse (at 24/18° C., day/night; 15 hours light; 50% humidity) and watered twice daily. After 13 days the test was evaluated (100=total damage to plant; 0=no damage to plant).” for “compound.”

[13] = system: Chenopodium album (CHEAL); experiment: Post-emergence biological efficacy
Description: as §1, with “Chenopodium album (CHEAL),” for “Lolium perenne (LOLPE),”, “(IPOHE), Eleusine indica (ELEIN), Lolium perenne (LOLPE), Digitaria sanguinalis (DIGSA),” for “(IPOHE),”, “14 days” for “one day”, “compound. The test plants were then grown under controlled conditions in the glasshouse (at 24/18° C., day/night; 15 hours light; 50% humidity) and watered twice daily. After 13 days the test was evaluated (100=total damage to plant; 0=no damage to plant).” for “compound.”

Eleusine indica (ELEIN) = experiment: Post-emergence biological efficacy
Description: as §1, with “Chenopodium album (CHEAL),” for “Lolium perenne (LOLPE),”, “(IPOHE), Eleusine indica (ELEIN), Lolium perenne (LOLPE), Digitaria sanguinalis (DIGSA),” for “(IPOHE),”, “14 days” for “one day”, “compound. The test plants were then grown under controlled conditions in the glasshouse (at 24/18° C., day/night; 15 hours light; 50% humidity) and watered twice daily. After 13 days the test was evaluated (100=total damage to plant; 0=no damage to plant).” for “compound.”

[14] = system: Echinochloa crus-galli (ECHCG); experiment: Post-emergence biological efficacy
Description: as §1, with “Chenopodium album (CHEAL),” for “Lolium perenne (LOLPE),”, “(IPOHE), Eleusine indica (ELEIN), Lolium perenne (LOLPE), Digitaria sanguinalis (DIGSA),” for “(IPOHE),”, “14 days” for “one day”, “compound. The test plants were then grown under controlled conditions in the glasshouse (at 24/18° C., day/night; 15 hours light; 50% humidity) and watered twice daily. After 13 days the test was evaluated (100=total damage to plant; 0=no damage to plant).” for “compound.”

SMILES	pest or weed control at 250 g/ha [1] [%]	pest or weed control at 250 g/ha [2] [%]	pest or weed control at 250 g/ha (Setaria faberi (SETFA) [3]) [%]	pest or weed control at 250 g/ha (Lolium perenne (LOLPE) [4]) [%]	pest or weed control at 250 g/ha [5] [%]	pest or weed control at 250 g/ha [6] [%]	pest or weed control at 250 g/ha [7] [%]	pest or weed control at 250 g/ha [8] [%]	pest or weed control at 250 g/ha [9] [%]	pest or weed control at 250 g/ha (Setaria faberi (SETFA) [10]) [%]	pest or weed control at 250 g/ha (Lolium perenne (LOLPE) [11]) [%]	pest or weed control at 250 g/ha [12] [%]	pest or weed control at 250 g/ha [13] [%]	pest or weed control at 250 g/ha (Eleusine indica (ELEIN)) [%]	pest or weed control at 250 g/ha [14] [%]
CCOC(=O)[C@H]1C[C@@H](OC(=O)c2cc(-n3c(=O)n(C)c(=S)n(C)c3=O)c(F)cc2Cl)C1 [1-981 (cis), (cis)-(3-Ethoxycarbonylcyclobutyl) 2-chloro-5-(3,5-dimethyl-2,6-dioxo-4-thioxo-1,3,5-triazinan-1-yl)-4-fluoro-benzoate]	50	70	50	80	100	100	60	50	50	100	70	80	100	50	80
CCOC(=O)COC(=O)c1cc(-n2c(=O)n(C)c(=S)n(C)c2=O)c(F)cc1Cl [Compound 1-12, (2-ethoxy-2-oxo-ethyl]-2-chloro-5-(3,5-dimethyl-2,6-dioxo-4-thioxo-1,3,5-triazinan-1-yl)-4-fluoro-benzoate]	90	80	80	90	100	90	100	100	100	100	100	100	100	100	100
COC(=O)CNC(=O)c1cc(-n2c(=O)n(C)c(=S)n(C)c2=O)c(F)cc1Cl [Compound 1-35, Methyl 2-[[2-chloro-5-(3,5-dimethyl-2,6-dioxo-4-thioxo-1,3,5-triazinan-1-yl)-4-fluoro-benzoyl]amino]acetate]	40	0	10	70	30	80	70	40	50	40	10	30	20	40	40
CCOC(=O)[C@H](C)OC(=O)c1cc(-n2c(=O)n(C)c(=S)n(C)c2=O)c(F)cc1Cl [Compound 1-63 (S-enantiomer), [(1S)-2-ethoxy-1-methyl-2-oxo-ethyl]-2-chloro-5-(3,5-dimethyl-2,6-dioxo-4-thioxo-1,3,5-triazinan-1-yl)-4-fluoro-benzoate]	90	60	80	90	100	100	100	100	100	100	100	100	100	100	100
